ChEMBL document CHEMBL1201862, “PubChem BioAssay data set” (2004)
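Following 48 hours of exposure in 96-well plates, responses at five concentrations were used to interpolate endpoints linearly. At the GI50, growth is halved.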 The source made the active and inactive calls. Rule as the data show it: active = GI50 up to about 1.1 µM and inactive = higher.

How the values were obtained:
Test in all cases: growth of human tumour cells (NCI), 48 h
[1] = test system: 786-0
[2] = test system: CCRF-CEM
[3] = test system: HOP-62
[4] = test system: HCC 2998
[5] = test system: HT-29
[6] = test system: NCI-H226
[7] = test system: DU-145
[8] = test system: NCI/ADR-RES
[9] = test system: NCI-H460
[10] = test system: SNB-75
[11] = test system: TK-10
[12] = test system: HCT-15
[13] = test system: SK-OV-3
[14] = test system: HOP-92
[15] = test system: Malme-3M
[16] = test system: SW-620
[17] = test system: MCF7
[18] = test system: SN12C
[19] = test system: PC-3
[20] = test system: MDA-N

| Structure (SMILES) | GI50 [1] | GI50 [2] | GI50 [3] | GI50 [4] | GI50 [5] | GI50 [6] | GI50 [7] | GI50 [8] | GI50 [9] | GI50 [10] | GI50 [11] | GI50 [12] [µM] | GI50 [13] | GI50 [14] | GI50 [15] | GI50 [16] | GI50 [17] | GI50 [18] | GI50 [19] | GI50 [20] |
| --- | --- | --- | --- | --- | --- | --- | --- | --- | --- | --- | --- | --- | --- | --- | --- | --- | --- | --- | --- | --- |
| COc1ccc(CNc2nc3ccccc3nc2-c2cccs2)cc1 | 43.9 µM (inactive) | 25.9 µM (inactive) | > 100 µM (inactive) | 45.6 µM (inactive) | 18.9 µM (inactive) | > 100 µM (inactive) | > 100 µM (inactive) | 17.4 µM (inactive) | 24.2 µM (inactive) | > 100 µM (inactive) | 94.2 µM (inactive) | 35.4 | 43.4 µM (inactive) | 16.6 µM (inactive) | 50.1 µM (inactive) | 51.9 µM (inactive) | 28.3 µM (inactive) | – | – | – |
| Cc1cc2nc3c(C#N)c4c(c(Cl)n3c2cc1C)CCC4 | 16 µM (inactive) | – | > 100 µM (inactive) | – | – | 74.1 µM (inactive) | – | 18.3 µM (inactive) | 37.6 µM (inactive) | > 100 µM (inactive) | 24.7 µM (inactive) | 17.6 | > 100 µM (inactive) | 31.8 µM (inactive) | 52.8 µM (inactive) | 19.6 µM (inactive) | – | 18.6 µM (inactive) | – | – |
| Brc1cccc[n+]1-c1ccc2cc(-[n+]3ccccc3Br)ccc2c1 | 26.4 µM (inactive) | 34.1 µM (inactive) | 27.6 µM (inactive) | 46.1 µM (inactive) | 29.1 µM (inactive) | > 100 µM (inactive) | 14.8 µM (inactive) | 53.3 µM (inactive) | 30.2 µM (inactive) | – | 18.3 µM (inactive) | 32.5 | 3.01 µM (inactive) | – | 23.1 µM (inactive) | 44.5 µM (inactive) | 35.7 µM (inactive) | 42.4 µM (inactive) | > 100 µM (inactive) | – |
| O=C(OC1=CCN(Br)C1=O)C1=C(O)C(=O)N(Br)C1 | 16.7 µM (inactive) | 27.1 µM (inactive) | 24 µM (inactive) | 53.8 µM (inactive) | – | 54 µM (inactive) | 53.2 µM (inactive) | > 100 µM (inactive) | 38.3 µM (inactive) | 24.3 µM (inactive) | 33 µM (inactive) | 57.3 | 21.5 µM (inactive) | – | 55 µM (inactive) | 26.5 µM (inactive) | 33 µM (inactive) | 17.3 µM (inactive) | 29.3 µM (inactive) | – |
| CC(C)N(C(=O)C12C3C4C1C1C2C3C41C#N)C(C)C (stereo unspecified) | > 100 µM (inactive) | > 50 µM (inactive) | > 100 µM (inactive) | > 100 µM (inactive) | > 100 µM (inactive) | > 100 µM (inactive) | – | – | > 100 µM (inactive) | > 84.7 µM (inactive) | > 100 µM (inactive) | > 72.8 | > 100 µM (inactive) | > 100 µM (inactive) | > 100 µM (inactive) | > 54.5 µM (inactive) | – | > 100 µM (inactive) | – | – |
| CC1=NN(c2nc(N)nc(CN3CCOCC3)n2)C(C)(C)C1 | 15.2 µM (inactive) | 30.1 µM (inactive) | 46.2 µM (inactive) | > 100 µM (inactive) | > 100 µM (inactive) | > 100 µM (inactive) | > 100 µM (inactive) | > 100 µM (inactive) | > 100 µM (inactive) | > 100 µM (inactive) | > 100 µM (inactive) | > 100 | > 100 µM (inactive) | 33.2 µM (inactive) | – | > 100 µM (inactive) | > 100 µM (inactive) | > 100 µM (inactive) | > 100 µM (inactive) | – |
| COc1ccc(CC2c3cc(OC)c(OC)c(OC)c3CC[N+]2(C)C)cc1Oc1ccc(CC2c3cc4c(c(OC)c3CC[N+]2(C)C)OCO4)cc1 (stereo unspecified) | > 100 µM (inactive) | > 100 µM (inactive) | – | > 100 µM (inactive) | > 100 µM (inactive) | > 100 µM (inactive) | > 100 µM (inactive) | > 100 µM (inactive) | > 100 µM (inactive) | 91.6 µM (inactive) | > 100 µM (inactive) | > 100 | > 100 µM (inactive) | > 100 µM (inactive) | > 100 µM (inactive) | > 100 µM (inactive) | 96.2 µM (inactive) | > 100 µM (inactive) | > 100 µM (inactive) | – |
| O=C(Nc1cc(C(F)(F)F)ccc1Cl)C(=O)C(C(=O)c1ccc2ccccc2c1)C1OC(=O)c2ccccc21 (stereo unspecified) | 5.26 µM (inactive) | 4.11 µM (inactive) | 6.01 µM (inactive) | 10.1 µM (inactive) | 13.8 µM (inactive) | 0.881 µM (active) | – | – | 3.79 µM (inactive) | 7.41 µM (inactive) | 20.7 µM (inactive) | 6.32 | 31.3 µM (inactive) | 11.8 µM (inactive) | 11.6 µM (inactive) | 6.35 µM (inactive) | – | 13 µM (inactive) | – | – |
| CCCCCCCCCCCC(=O)OCCOCCOCCOCCOCCOC(=O)CCCCCCCCCCC | > 100 µM (inactive) | > 100 µM (inactive) | > 100 µM (inactive) | > 100 µM (inactive) | > 100 µM (inactive) | > 100 µM (inactive) | – | – | > 100 µM (inactive) | > 100 µM (inactive) | > 100 µM (inactive) | > 100 | > 100 µM (inactive) | > 100 µM (inactive) | > 100 µM (inactive) | > 100 µM (inactive) | – | > 100 µM (inactive) | – | – |
| COC1CC(OS(=O)(=O)c2ccc(C)cc2)C(OC(=O)c2ccccc2)C(C)O1 (stereo unspecified) | > 10 µM (inactive) | > 10 µM (inactive) | > 10 µM (inactive) | > 10 µM (inactive) | > 10 µM (inactive) | > 10 µM (inactive) | – | – | > 10 µM (inactive) | 99.5 µM (inactive) | > 10 µM (inactive) | > 10 | > 10 µM (inactive) | 99.1 µM (inactive) | > 10 µM (inactive) | > 10 µM (inactive) | – | > 10 µM (inactive) | – | – |
| CC1=Nc2nc3ccccc3n2C(C)(C)C1 | > 100 µM (inactive) | > 100 µM (inactive) | > 100 µM (inactive) | – | > 100 µM (inactive) | > 100 µM (inactive) | – | > 100 µM (inactive) | > 100 µM (inactive) | > 100 µM (inactive) | > 100 µM (inactive) | > 100 | > 100 µM (inactive) | > 100 µM (inactive) | 4.54 µM (inactive) | > 100 µM (inactive) | > 100 µM (inactive) | – | > 100 µM (inactive) | > 100 µM (inactive) |
| O=C1CSC(c2c[nH]c3ccccc23)N1c1cccc([N+](=O)[O-])c1 (stereo unspecified) | > 100 µM (inactive) | > 100 µM (inactive) | > 100 µM (inactive) | > 100 µM (inactive) | > 100 µM (inactive) | – | 51.9 µM (inactive) | – | 28.8 µM (inactive) | 43.7 µM (inactive) | 81.8 µM (inactive) | 42.9 | > 100 µM (inactive) | 32.6 µM (inactive) | – | > 100 µM (inactive) | 90.8 µM (inactive) | > 100 µM (inactive) | 36.1 µM (inactive) | 34.8 µM (inactive) |
| Cc1ccc(/C=c2\cc3oc(=O)c4cccc(c4-3)c2=O)cc1 | > 100 µM (inactive) | 19.6 µM (inactive) | > 100 µM (inactive) | > 100 µM (inactive) | > 100 µM (inactive) | – | > 100 µM (inactive) | > 100 µM (inactive) | > 100 µM (inactive) | > 100 µM (inactive) | > 100 µM (inactive) | > 100 | > 100 µM (inactive) | > 100 µM (inactive) | > 100 µM (inactive) | > 100 µM (inactive) | > 100 µM (inactive) | > 100 µM (inactive) | > 100 µM (inactive) | – |
| C/C=C/C=N/N(C(=O)c1cc([N+](=O)[O-])cc([N+](=O)[O-])c1)C1=NN=C(c2ccccc2)C(c2ccccc2)N1 (stereo unspecified) | 80.4 µM (inactive) | 36.7 µM (inactive) | > 100 µM (inactive) | 34 µM (inactive) | 35.6 µM (inactive) | > 100 µM (inactive) | – | – | 91.2 µM (inactive) | > 100 µM (inactive) | > 100 µM (inactive) | 41.4 | > 100 µM (inactive) | 11.1 µM (inactive) | 25.6 µM (inactive) | 55 µM (inactive) | – | 57.9 µM (inactive) | – | – |
| COc1ccc(C2=C3c4cc(OC)c(OC)cc4CCN3C(=S)SS2)cc1OC | > 100 µM (inactive) | 46.5 µM (inactive) | > 100 µM (inactive) | > 100 µM (inactive) | 72.8 µM (inactive) | > 100 µM (inactive) | – | – | > 100 µM (inactive) | 25.1 µM (inactive) | > 100 µM (inactive) | 77.6 | > 100 µM (inactive) | 32.1 µM (inactive) | 24 µM (inactive) | 95.9 µM (inactive) | – | 64.7 µM (inactive) | – | – |
| CCc1cccc(CC)c1NC(=O)CC1SC(N)=NC1=O (stereo unspecified) | > 100 µM (inactive) | > 100 µM (inactive) | > 100 µM (inactive) | > 100 µM (inactive) | > 100 µM (inactive) | > 100 µM (inactive) | – | – | > 100 µM (inactive) | > 100 µM (inactive) | > 100 µM (inactive) | > 100 | > 100 µM (inactive) | > 100 µM (inactive) | > 100 µM (inactive) | > 100 µM (inactive) | – | > 100 µM (inactive) | – | – |
| CCN(CC)c1ccc2cc(C(N)=O)/c(=N/c3ccc(F)cc3)oc2c1 | 14.8 µM (inactive) | > 100 µM (inactive) | 28 µM (inactive) | 59.2 µM (inactive) | 6.95 µM (inactive) | 36.4 µM (inactive) | – | 35.6 µM (inactive) | 6.76 µM (inactive) | 20.4 µM (inactive) | 10.3 µM (inactive) | 59.8 | 58.6 µM (inactive) | 18.7 µM (inactive) | 98.2 µM (inactive) | > 100 µM (inactive) | 51.4 µM (inactive) | 45.4 µM (inactive) | 77.1 µM (inactive) | > 100 µM (inactive) |
